Results published in patent US20220235029A1, “CRYSTAL FORM OF C-MET/AXL INHIBITOR” (MEDSHINE DISCOVERY INC., priority 2019, published 2022).

What was measured:
[1] = Study on the hygroscopicity (DVS detection); type: physicochemical; settings: 25° C./80% RH
Method: Dynamic Vapor Sorption (DVS) Instrument in the Present Disclosure
Instrument model: DVS Advantage-1 (SMS)
Detection condition: about 10-15 mg of the sample was used for DVS detection.
Equilibrium: dm/dt=0.01%/min: (time: 10 min, longest: 180 min)
RH (%) gradient for testing: 10%
RH (%) gradient range for testing: 0%-90%-0%
The hygroscopicity was evaluated using the judgment criterias in the following Table 6: […]

[2] = test system: MKN45 gastric cancer cell line; experiment: Cell proliferation inhibition experiment (CellTiter-Glo); type: cell-based
Method: Reagents and Consumables:
The cell plates were incubated in a carbon dioxide incubator for 3 days.

[3] = test system: human Hs746t gastric cancer cell xenograft tumor model; experiment: In vivo pharmacodynamic study, Hs746t gastric cancer cell xenograft tumor model; design: species or system BALB/c nude mice; settings: for Tumor volume (mm^3) (20th day): average value ± SEM, Hs746t xenograft in BALB/c nude mice; for T/C (%) / TGI (%): calculated based on the tumor volume on the 21st day after administration
Method: Human gastric cancer HS 746T cells were cultured in a single layer in vitro. The culturing condition was DMEM medium supplemented with 10% fetal bovine serum, 100 U/mL penicillin and […] in 37° C., 5% CO2 incubator. Digestion and passage treatment with trypsin-EDTA was carried out twice a week. When the cell saturation was 80%-90% and the number reached the required level, the cells were collected, counted and seeded.
BALB/c nude mice, male. 6-8 weeks old, weighting 18-22 g.
0.2 mL (2×10^6, cells:Matrigel=1:1) HS 746T cells were inoculated subcutaneously on the right back of each mouse. The drug was administered in groups when the average tumor volume reached approximately 100-150 mm^3.
Experimental index: The experimental index was whether the tumor growth was inhibited, delayed or cured. The diameters of the tumor were measured twice a week using a vernier caliper. The formula for calculating the tumor volume is V=0.5a×b^2, a and b represent the long and short diameters of the tumor respectively. The antitumor effect (TGI) of the compound was evaluated by T-C (days) and T/C (%).

| Structure (SMILES) | Classification of hygroscopicity [1] | Hygroscopic weight gain at 25/80% RH [1] [%] | inhibitory activity on MKN45 cell (in words) [2] | Tumor volume (mm^3) (20th day) [3] | T/C (%) [3] [%] | TGI (%) [3] [%] | tumor inhibitory effect (in words) ([3]; Hs746t gastric cancer cell xenograft tumor model) |
| --- | --- | --- | --- | --- | --- | --- | --- |
| CN(C)C(=O)Nc1cc(Oc2ccc(NC(=O)c3cn(CC4CC4)c(=O)n(-c4ccc(F)cc4)c3=O)cc2F)ccn1.Cc1ccc(S(=O)(=O)O)cc1 | slightly hygroscopic | 0.999 | – | – | – | – | – |
| CN(C)C(=O)Nc1cc(Oc2ccc(NC(=O)c3cn(CC4CC4)c(=O)n(-c4ccc(F)cc4)c3=O)cc2F)ccn1 | slightly hygroscopic | 0.2801 | good inhibitory activity | – | – | – | – |
| Cc1ccc(C(=O)Nc2ccc(Oc3cc4cnn(C)c4cc3-c3cn[nH]c3)c(F)c2)c(=O)n1-c1ccc(F)cc1 [LY2801653] | – | – | – | 88 ± 13 | 101.62 | 3.45 | – |
| CCOc1ccn(-c2ccc(F)cc2)c(=O)c1C(=O)Nc1ccc(Oc2ccnc(N)c2Cl)c(F)c1 [BMS777607] | – | – | – | 1872 ± 355 | 27.61 | 73.58 | – |
| CN(C)C(=O)Nc1cc(Oc2ccc(NC(=O)c3cn(CC4CC4)c(=O)n(-c4ccc(F)cc4)c3=O)cc2F)ccn1 [Compound represented by formula (I)] | – | – | – | 4 ± 2 | 104.82 | 0.15 | better tumor inhibitory effect than BMS777607 and LY2801653 |
